Patent US8168677B2, “Method for treatment of inflammatory bowel disease” (Kemphys Ltd., priority 2005, dated 2012)
Where “and” joins values, the source holds several entries; their conditions need not be identical. Equal values may be shown once.

Tests used:
[1] = system: model rat of inflammatory bowel disease (DNBS instilled intracolonically); test: Evaluation of Am80 using DNBS-induced model rat of inflammatory bowel disease (Example 1); type: in vivo, Wistar rats; details: for Presence or Absence of Adhesion (in five rats per group): number of animals with adhesion
Procedure: Male or female Wistar rats weighing 200±5 g were used to create an animal model of inflammatory bowel disease. After the animals were fasted for 24 hours, DNBS (2,4-Dinotrobenzenesulfonic Acid, 30 mg in 0.5 ml 30% ethanol) was instilled intracolonically through the anus. Each of 4-[(5,6,7,8-tetrahydro-5,5,8,8-tetramethyl-2-naphthalenyl)carbamoyl]benzoic acid (Am80, generic name: Tamibarotene) as the medicament of the present invention so as to be a dose at 0.3 mg/kg, and salazosulfapyridine (SASP), a commercially available drug for ulcerative colitis, as a comparative example (positive control drug) so as to be a dose at 300 mg/kg was administered 24 hours before and 2 hours before the DNBS infusion, and once daily for 5 days after 24 hours from the infusion. Tamibarotene or SASP was each administered orally as a suspension in 0.5% carboxymethylcellulose. For the control group, the solvent was administered orally according to the same schedule as that for SASP. The animals were subjected to anatomic examination 24 hours after the final administration, and a degree of bowel inflammation was observed. For each of the Tamibarotene-administered group, SASP-administered group, the normal group, and the control group, five rats were used.
(§1) The results are indicated as the scores of bowel inflammation (average), weight of the bowel per unit body weight (100 g body weight) (average±standard error), and the number of animals in each group that gave adhesion. The scoring of bowel inflammation were conducted by visual observation according to the method of judgment described in the reference (Am. J. Physiol., 258: G527-34, 1990). • Score of Bowel Ulceration and Inflammation (Macroscopic) • Score: observation • 0: Normal; • 1: Localized hyperemia, no ulcers; • 2: Ulceration without hyperemia or colonic wall thickening; • 3: Inflammation and ulceration at one site; • 4: Ulcers and Inflammations at two or more sites; • 5: A major damaged site extending in 1 cm or longer along the direction of the colon length; and • 6-10: When a major damaged site extends in 2 cm or longer along the direction of the colon length, a score is increased by one for each additional 1 cm over 2 cm.

[2] = system: rat model of inflammatory bowel disease (DNBS instilled intracolonically); test: Evaluation of retinoids which bind to RAR and RXR using DNBS-induced rat model of inflammatory bowel disease (Example 2); type: in vivo, Wistar rats; details: for Bowel Inflammation Score [average]: 24 h and 2 h before DNBS and once daily for 5 days, macroscopic score 0-10, N = 5; for Presence or Absence of Adhesion (in five rats per group): number of animals with adhesion
Procedure: Male or female Wistar rats weighing 200±5 g were used to create an animal model of inflammatory bowel disease. After the animals were fasted for 24 hours, DNBS (2,4-Dinotrobenzenesulfonic Acid, 30 mg in 0.5 ml 30% ethanol) was instilled intracolonically through the anus. As the medicaments of the present invention, 4-[2,3-(2,5-dimethyl-2,5-hexano)dibenzo[b,f][1,4]thiazepin-11-yl] benzoic acid (HX630) at 3 mg/kg, 4-(5H-7,8,9,10-tetrahydro-5,7,7,10,10-pentamethylbenzo[e]naphtho[2,3-b][1,4]diazepin-13-yl)benzoic acid (LE135) at 5 mg/kg, or a combination of 0.1 mg/kg of Am80 and 3 mg/kg of HX630 were used, and as a comparative example (positive control drug), 300mg/kg of salazosulfapyridine (SASP) as a commercially available drug for ulcerative colitis was used, and each drug was administered 24 hours before and 2 hours before the DNBS infusion, and once daily for 5 days after 24 hours from the infusion. Each drug was administered orally as a suspension in 0.5% carboxymethylcellulose. For the control group, the solvent was administered orally according to the same schedule. The animals were subjected to anatomic examination 24 hours after the final administration, and a degree of bowel inflammation was observed. For each of the Tamibarotene-administered group, SASP-administered group, the normal group, and the control group, five rats were used.
as §1, with “the colon” for “the bowel”

For `O=C(O)c1cc(/N=N/c2ccc(S(=O)(=O)Nc3ccccn3)cc2)ccc1O` [SASP, salazosulfapyridine], the “Bowel Inflammation Score [average]” value ([1]; SASP 300 mg/kg oral, 24 h and 2 h before DNBS and once daily for 5 days, macroscopic score 0-10, N = 5) was 2, the “Colon weight/100 g body weight [average]” value ([1]; SASP 300 mg/kg oral, average ± standard error, N = 5) was 0.682 ± 0.023 and the “Presence or Absence of Adhesion (in five rats per group)” value ([1]; SASP 300 mg/kg oral) was 2/5.
For `CC1(C)CCC(C)(C)c2cc(NC(=O)c3ccc(C(=O)O)cc3)ccc21` [Tamibarotene, 4-[(5,6,7,8-tetrahydro-5,5,8,8-tetramethyl-2-naphthalenyl)carbamoyl]benzoic acid], the “Presence or Absence of Adhesion (in five rats per group)” value ([1]; Tamibarotene 0.3 mg/kg oral) was “significantly suppressed and 0/5”.
For `CC1(C)CCC(C)(C)c2cc3c(cc21)Sc1ccccc1N=C3c1ccc(C(=O)O)cc1` [HX630, 4-[2,3-(2,5-dimethyl-2,5-hexano)dibenzo[b,f][1,4]thiazepin-11-yl] benzoic acid], the “Bowel Inflammation Score [average]” value ([2]; HX630 3 mg/kg oral) was 3.4 and the “Presence or Absence of Adhesion (in five rats per group)” value ([2]; HX630 3 mg/kg oral) was 1/5.
For `CN1c2cc3c(cc2N=C(c2ccc(C(=O)O)cc2)c2ccccc21)C(C)(C)CCC3(C)C` [LE135, 4-(5H-7,8,9,10-tetrahydro-5,7,7,10,10-pentamethylbenzo[e]naphtho[2,3-b][1,4]diazepin-13-yl)benzoic acid], the “Bowel Inflammation Score [average]” value ([2]; LE135 5 mg/kg oral) was 2.4 and the “Presence or Absence of Adhesion (in five rats per group)” value ([2]; LE135 5 mg/kg oral) was 0/5.
